Where a SMILES comes first, the peptide text is derived from it.
Tests used:
E. coli 25922 = format: cell-based, Escherichia coli; details: 25922, 24 h
Experimental: (§1) The antibacterial activity of the peptides was measured using a method adopted from the Clinical Laboratory Standards Institute (CLSI), with modifications. 50 μL bacterial cells solution with 1000-fold of OD600 = 0.4 was mixed with 50 μL of each peptide of various concentration ranged from 2 to 64 μM dissolved in BSA (0.2% with 0.01% acetic acid) and incubated in sterile 96-well plates at 37°C for 24 h. The MICs were calculated as the lowest concentration of peptide with no microbial growth being observed. Broth with microbial cells and uninoculated broth were used as positive control and negative control, respectively. The tests were performed at least three times.

E. coli UB 1005 = experiment: MIC measurement (modified CLSI broth microdilution); format: cell-based, Escherichia coli; details: peptide 2-64 μM in 0.2% BSA with 0.01% acetic acid, 37°C, 24 h, at least three times
Experimental: as §1

P. aeruginosa 27853 = format: cell-based, Pseudomonas aeruginosa; details: 27853, 24 h
Experimental: as §1

S. epidermidis 12228 = format: cell-based, Staphylococcus epidermidis; details: 12228, 24 h
Experimental: as §1

S. aureus 29213 = format: cell-based, Staphylococcus aureus; details: 29213, 24 h
Experimental: as §1

MRSA* 43300 = format: cell-based, methicillin-resistant Staphylococcus aureus; details: * 43300, 24 h
Experimental: as §1

L. rhamnosus 1.0385 = format: cell-based, Lactobacillus rhamnosus; details: 24 h
Experimental: as §1

L. rhamnosus 1.0386 = format: cell-based, Lactobacillus rhamnosus; details: 24 h
Experimental: as §1

L. rhamnosus 1.0911 = format: cell-based, Lactobacillus rhamnosus; details: 24 h
Experimental: as §1

L. rhamnosus 1.9025 = format: cell-based, Lactobacillus rhamnosus; details: 24 h
Experimental: as §1

L. rhamnosus 7469 = format: cell-based, Lactobacillus rhamnosus; details: 24 h
Experimental: as §1

L. plantarum 8014 = format: cell-based; details: 24 h
Experimental: as §1

pathogens = experiment: Geometric mean of MICs against pathogens; format: cell-based; details: six pathogenic strains of Table 2
Experimental: as §1

Lactobacillus = format: cell-based; details: probiotic strains of Table 2
Experimental: as §1

E. coli ATCC 25922 = experiment: Drug resistance experiment (sequential passaging); format: cell-based, Escherichia coli; details: E. coli 25922, passaged at sub-MIC for 30 days
Experimental: Resistance development of E. coli ATCC 25922 against antibiotics was investigated using a sequential passaging method. Briefly, in the first generation, the MIC value was determined as described previously. After a 24 h incubation, bacterial cells growing in a well with a half-MIC level were harvested and diluted to 0.05 at OD600, followed by a 1:10 dilution in fresh MHB. The inoculum was subjected to subsequent passage MIC testing, and the process was repeated for 30 days. The fold change in MIC was plotted against the number of passages.

Row | Compound | MIC E. coli 25922 (E. coli 25922) [μ M] | MIC E. coli UB 1005 (E. coli UB 1005) [μ M] | MIC P. aeruginosa 27853 (P. aeruginosa 27853) [μ M] | MIC S. epidermidis 12228 (S. epidermidis 12228) [μ M] | MIC S. aureus 29213 (S. aureus 29213) [μ M] | MIC MRSA* 43300 (MRSA* 43300) [μ M] | MIC L. rhamnosus 1.0385 (L. rhamnosus 1.0385) [μ M] | MIC L. rhamnosus 1.0386 (L. rhamnosus 1.0386) [μ M] | MIC L. rhamnosus 1.0911 (L. rhamnosus 1.0911) [μ M] | MIC L. rhamnosus 1.9025 (L. rhamnosus 1.9025) [μ M] | MIC L. rhamnosus 7469 (L. rhamnosus 7469) [μ M] | MIC L. plantarum 8014 (L. plantarum 8014) [μ M] | geometric mean (GM) of MICs against pathogens (pathogens) [µM] | MIC against Lactobacillus (Lactobacillus) | resistance development (change in MIC on serial passaging) (E. coli ATCC 25922)
1 | N=C(N)NCCC[C@H](NC(=O)[C@H](CCCNC(=N)N)NC(=O)[C@H](Cc1c[nH]c2ccccc12)NC(=O)[C@H](CS)NC(=O)[C@H](Cc1c[nH]c2ccccc12)NC(=O)[C@H](Cc1c[nH]c2ccccc12)NC(=O)[C@H](Cc1c[nH]c2ccccc12)NC(=O)[C@H](CS)NC(=O)[C@H](Cc1c[nH]c2ccccc12)NC(=O)[C@H](CCCNC(=N)N)NC(=O)[C@@H](N)CCCNC(=N)N)C(N)=O [Peptide S1] (H-RRWCWWWCWRR-NH2; N-terminus assumed) | >64 | 16 | 8 | 8 | 8 | 4 | 16 | >64 | >64 | >64 | >64 | 8 | – | – | –
2 | N=C(N)NCCC[C@H](NC(=O)[C@H](CCCNC(=N)N)NC(=O)[C@H](Cc1c[nH]c2ccccc12)NC(=O)[C@H](Cc1ccc(O)cc1)NC(=O)[C@H](Cc1c[nH]c2ccccc12)NC(=O)[C@H](Cc1c[nH]c2ccccc12)NC(=O)[C@H](Cc1c[nH]c2ccccc12)NC(=O)[C@H](Cc1ccc(O)cc1)NC(=O)[C@H](Cc1c[nH]c2ccccc12)NC(=O)[C@H](CCCNC(=N)N)NC(=O)[C@@H](N)CCCNC(=N)N)C(N)=O [Peptide S2] (H-RRWYWWWYWRR-NH2) | 32 | 32 | 8 | 8 | 8 | 8 | 16 | 16 | >64 | >64 | >64 | 4 | – | – | –
3 | N=C(N)NCCC[C@H](NC(=O)[C@H](CCCNC(=N)N)NC(=O)[C@H](Cc1c[nH]c2ccccc12)NC(=O)[C@H](CC(N)=O)NC(=O)[C@H](Cc1c[nH]c2ccccc12)NC(=O)[C@H](Cc1c[nH]c2ccccc12)NC(=O)[C@H](Cc1c[nH]c2ccccc12)NC(=O)[C@H](CC(N)=O)NC(=O)[C@H](Cc1c[nH]c2ccccc12)NC(=O)[C@H](CCCNC(=N)N)NC(=O)[C@@H](N)CCCNC(=N)N)C(N)=O [Peptide S3] (H-RRWNWWWNWRR-NH2) | >64 | >64 | >64 | >64 | >64 | >64 | >64 | >64 | >64 | >64 | >64 | >64 | – | – | –
4 | N=C(N)NCCC[C@H](NC(=O)[C@H](CCCNC(=N)N)NC(=O)[C@H](Cc1c[nH]c2ccccc12)NC(=O)[C@H](CCC(N)=O)NC(=O)[C@H](Cc1c[nH]c2ccccc12)NC(=O)[C@H](Cc1c[nH]c2ccccc12)NC(=O)[C@H](Cc1c[nH]c2ccccc12)NC(=O)[C@H](CCC(N)=O)NC(=O)[C@H](Cc1c[nH]c2ccccc12)NC(=O)[C@H](CCCNC(=N)N)NC(=O)[C@@H](N)CCCNC(=N)N)C(N)=O [Peptide S4] (H-RRWQWWWQWRR-NH2) | 4 | 4 | 4 | 4 | 4 | 4 | 16 | 64 | >64 | >64 | >64 | 8 | – | – | –
5 | C[C@@H](O)[C@H](NC(=O)[C@H](Cc1c[nH]c2ccccc12)NC(=O)[C@H](Cc1c[nH]c2ccccc12)NC(=O)[C@H](Cc1c[nH]c2ccccc12)NC(=O)[C@@H](NC(=O)[C@H](Cc1c[nH]c2ccccc12)NC(=O)[C@H](CCCNC(=N)N)NC(=O)[C@@H](N)CCCNC(=N)N)[C@@H](C)O)C(=O)N[C@@H](Cc1c[nH]c2ccccc12)C(=O)N[C@@H](CCCNC(=N)N)C(=O)N[C@@H](CCCNC(=N)N)C(N)=O [Peptide S5] (H-RRWTWWWTWRR-NH2) | 2 | 2 | 4 | 2 | 1 | 4 | >64 | >64 | >64 | >64 | >64 | >64 | 2.24 | more than 64 μM | –
6 | N=C(N)NCCC[C@H](NC(=O)[C@H](CCCNC(=N)N)NC(=O)[C@H](Cc1c[nH]c2ccccc12)NC(=O)CNC(=O)[C@H](Cc1c[nH]c2ccccc12)NC(=O)[C@H](Cc1c[nH]c2ccccc12)NC(=O)[C@H](Cc1c[nH]c2ccccc12)NC(=O)CNC(=O)[C@H](Cc1c[nH]c2ccccc12)NC(=O)[C@H](CCCNC(=N)N)NC(=O)[C@@H](N)CCCNC(=N)N)C(N)=O [Peptide S6] (H-RRWGWWWGWRR-NH2) | 4 | 2 | 8 | >64 | 16 | 16 | >64 | >64 | >64 | >64 | >64 | >64 | – | – | –
7 | N=C(N)NCCC[C@H](NC(=O)[C@H](CCCNC(=N)N)NC(=O)[C@H](Cc1c[nH]c2ccccc12)NC(=O)[C@H](CO)NC(=O)[C@H](Cc1c[nH]c2ccccc12)NC(=O)[C@H](Cc1c[nH]c2ccccc12)NC(=O)[C@H](Cc1c[nH]c2ccccc12)NC(=O)[C@H](CO)NC(=O)[C@H](Cc1c[nH]c2ccccc12)NC(=O)[C@H](CCCNC(=N)N)NC(=O)[C@@H](N)CCCNC(=N)N)C(N)=O [Peptide S7] (H-RRWSWWWSWRR-NH2) | 4 | 2 | 4 | 4 | 4 | 2 | >64 | >64 | >64 | >64 | >64 | >64 | 3.17 | more than 64 μM | –
8 | CN(C)[C@@H]1C(O)=C(C(N)=O)C(=O)[C@@]2(O)C(O)=C3C(=O)c4c(O)cccc4[C@@](C)(O)[C@H]3C[C@@H]12 [tetracycline] | – | – | – | – | – | – | – | – | – | – | – | – | – | – | induced rapid resistance acquisition
